Activity calls are given as the source filed them.
Experiments:
BJ [1] = assay: BJ-TERT-LT-ST fibroblast viability loss – cell-based, RAS-independent, luminescence, dose response (AID 1935); type: functional; details: Homo sapiens;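 note: BJ fibroblasts immortalized with TERT plus LT and ST oncogenes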
BJ [2] = assay: growth inhibition of engineered Ras-driven BJ cells – cell-based, alamar blue fluorescence, cherrypicked samples, dose response (AID 2631); type: functional; details: Homo sapiens;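 note: confirmatory dose-response assay in RAS-dependent BJ fibroblasts engineered with TERT, LT and ST, with cytotoxicity read by fluorescence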
BJ [3] = assay: cells; type: functional, cell-based; details: Homo sapiens
BJ [4] = assay: BJ-TERT fibroblast viability loss – cell-based, RAS-independent, luminescence, dose response (AID 1933); type: functional; details: Homo sapiens
[5] = DRD fibroblast viability loss – cell-based, non-viral oncogenic, luminescence, dose response (AID 1934); type: functional; details: Homo sapiens
[6] = molecular target: T1, Sentrin-specific protease 8 (Homo sapiens, UniProt Q96LD8); type: functional;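 note: luminescence read-out of SENP8 inhibition, dose-response confirmation following an ultra-high-throughput screen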
T1 sequence (Q96LD8 whole entry): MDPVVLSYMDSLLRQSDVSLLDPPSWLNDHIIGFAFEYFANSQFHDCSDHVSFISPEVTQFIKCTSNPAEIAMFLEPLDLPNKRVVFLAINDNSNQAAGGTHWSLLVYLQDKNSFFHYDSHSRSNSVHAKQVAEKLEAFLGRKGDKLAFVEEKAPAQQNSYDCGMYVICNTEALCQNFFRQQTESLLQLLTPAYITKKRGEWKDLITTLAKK

[7] = molecular target: T2, Sentrin-specific protease 6 (Homo sapiens, UniProt Q9GZR1); type: functional
T2 sequence (Q9GZR1 whole entry): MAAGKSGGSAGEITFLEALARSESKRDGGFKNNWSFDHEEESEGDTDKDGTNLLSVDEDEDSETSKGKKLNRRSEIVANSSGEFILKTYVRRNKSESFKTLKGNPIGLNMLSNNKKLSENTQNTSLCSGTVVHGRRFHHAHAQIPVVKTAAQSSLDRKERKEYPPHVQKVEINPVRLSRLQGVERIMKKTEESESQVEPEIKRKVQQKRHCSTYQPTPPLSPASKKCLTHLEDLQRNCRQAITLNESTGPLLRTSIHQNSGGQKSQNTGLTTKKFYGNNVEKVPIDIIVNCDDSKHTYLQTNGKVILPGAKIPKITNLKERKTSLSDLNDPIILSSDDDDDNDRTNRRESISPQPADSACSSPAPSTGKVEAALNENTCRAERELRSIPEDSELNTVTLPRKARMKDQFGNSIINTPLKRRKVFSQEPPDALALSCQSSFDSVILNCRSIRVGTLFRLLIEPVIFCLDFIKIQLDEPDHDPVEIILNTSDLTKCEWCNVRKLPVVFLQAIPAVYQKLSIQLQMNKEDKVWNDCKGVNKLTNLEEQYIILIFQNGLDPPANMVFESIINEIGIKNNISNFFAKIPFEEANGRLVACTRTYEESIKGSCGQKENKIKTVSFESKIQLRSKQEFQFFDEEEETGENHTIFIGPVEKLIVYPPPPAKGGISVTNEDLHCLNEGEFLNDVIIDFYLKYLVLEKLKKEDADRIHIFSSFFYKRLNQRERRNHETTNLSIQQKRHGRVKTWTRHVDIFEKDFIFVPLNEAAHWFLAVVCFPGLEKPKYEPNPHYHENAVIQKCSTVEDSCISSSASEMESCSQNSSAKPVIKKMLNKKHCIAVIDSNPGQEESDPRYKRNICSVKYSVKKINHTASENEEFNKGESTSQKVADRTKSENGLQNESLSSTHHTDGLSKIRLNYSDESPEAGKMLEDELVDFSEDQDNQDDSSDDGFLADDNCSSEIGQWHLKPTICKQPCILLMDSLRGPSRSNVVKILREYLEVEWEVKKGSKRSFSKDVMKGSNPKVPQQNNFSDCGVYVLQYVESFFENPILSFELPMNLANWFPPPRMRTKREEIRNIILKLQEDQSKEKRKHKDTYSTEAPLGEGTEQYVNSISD

Caspase-3 [8] = molecular target: T3, Caspase-3 (Homo sapiens, UniProt P42574); type: functional
T3 sequence (P42574 whole entry): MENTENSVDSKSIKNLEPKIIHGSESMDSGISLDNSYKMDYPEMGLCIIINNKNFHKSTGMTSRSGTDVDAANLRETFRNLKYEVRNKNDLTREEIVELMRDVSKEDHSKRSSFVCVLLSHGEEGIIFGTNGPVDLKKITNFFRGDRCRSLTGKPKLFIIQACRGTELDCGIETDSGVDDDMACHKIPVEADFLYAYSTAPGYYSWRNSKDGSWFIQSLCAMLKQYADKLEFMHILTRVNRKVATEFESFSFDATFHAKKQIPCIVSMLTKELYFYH

[9] = molecular target: T4, Sentrin-specific protease 7 (Homo sapiens, UniProt Q9BQF6); type: functional;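 note: Luminescence-based dose-response confirmation of ultra-high-throughput screening hits, measuring inhibition of SENP7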
T4 sequence (Q9BQF6 whole entry): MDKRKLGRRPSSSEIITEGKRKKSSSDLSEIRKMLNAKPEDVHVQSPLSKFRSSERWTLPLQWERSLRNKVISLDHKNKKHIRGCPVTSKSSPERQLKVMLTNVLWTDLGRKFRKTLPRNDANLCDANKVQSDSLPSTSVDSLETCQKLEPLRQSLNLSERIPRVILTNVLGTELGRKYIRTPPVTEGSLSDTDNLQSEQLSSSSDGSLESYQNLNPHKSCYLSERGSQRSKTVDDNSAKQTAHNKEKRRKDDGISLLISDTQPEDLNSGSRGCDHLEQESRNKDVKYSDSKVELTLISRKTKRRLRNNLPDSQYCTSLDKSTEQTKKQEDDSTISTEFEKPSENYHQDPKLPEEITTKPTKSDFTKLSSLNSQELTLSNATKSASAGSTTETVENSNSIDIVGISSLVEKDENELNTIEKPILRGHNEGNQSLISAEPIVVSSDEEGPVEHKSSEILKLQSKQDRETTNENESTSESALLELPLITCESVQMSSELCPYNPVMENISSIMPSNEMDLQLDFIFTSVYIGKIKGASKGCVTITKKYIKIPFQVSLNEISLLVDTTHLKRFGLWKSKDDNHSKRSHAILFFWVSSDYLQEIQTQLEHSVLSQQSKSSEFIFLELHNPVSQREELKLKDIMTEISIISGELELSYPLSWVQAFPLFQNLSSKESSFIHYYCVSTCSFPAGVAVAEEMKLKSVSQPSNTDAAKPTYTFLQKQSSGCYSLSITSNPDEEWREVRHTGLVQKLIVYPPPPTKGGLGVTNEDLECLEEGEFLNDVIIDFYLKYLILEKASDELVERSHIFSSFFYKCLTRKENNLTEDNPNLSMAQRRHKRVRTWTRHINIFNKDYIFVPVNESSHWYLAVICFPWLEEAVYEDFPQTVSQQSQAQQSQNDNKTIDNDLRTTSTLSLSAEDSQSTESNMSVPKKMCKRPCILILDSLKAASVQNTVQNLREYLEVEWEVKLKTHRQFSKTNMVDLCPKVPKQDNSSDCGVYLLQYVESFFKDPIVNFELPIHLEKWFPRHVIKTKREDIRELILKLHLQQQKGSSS

Insulin-degrading enzyme [10] = molecular target: T5, Insulin-degrading enzyme (Homo sapiens, UniProt P14735); assay: cellular IDE activation of Abeta substrate cleavage – fluorescence polarization, HEK cells, dose response (AID 588439); type: functional, cell-based
T5 sequence (P14735 whole entry): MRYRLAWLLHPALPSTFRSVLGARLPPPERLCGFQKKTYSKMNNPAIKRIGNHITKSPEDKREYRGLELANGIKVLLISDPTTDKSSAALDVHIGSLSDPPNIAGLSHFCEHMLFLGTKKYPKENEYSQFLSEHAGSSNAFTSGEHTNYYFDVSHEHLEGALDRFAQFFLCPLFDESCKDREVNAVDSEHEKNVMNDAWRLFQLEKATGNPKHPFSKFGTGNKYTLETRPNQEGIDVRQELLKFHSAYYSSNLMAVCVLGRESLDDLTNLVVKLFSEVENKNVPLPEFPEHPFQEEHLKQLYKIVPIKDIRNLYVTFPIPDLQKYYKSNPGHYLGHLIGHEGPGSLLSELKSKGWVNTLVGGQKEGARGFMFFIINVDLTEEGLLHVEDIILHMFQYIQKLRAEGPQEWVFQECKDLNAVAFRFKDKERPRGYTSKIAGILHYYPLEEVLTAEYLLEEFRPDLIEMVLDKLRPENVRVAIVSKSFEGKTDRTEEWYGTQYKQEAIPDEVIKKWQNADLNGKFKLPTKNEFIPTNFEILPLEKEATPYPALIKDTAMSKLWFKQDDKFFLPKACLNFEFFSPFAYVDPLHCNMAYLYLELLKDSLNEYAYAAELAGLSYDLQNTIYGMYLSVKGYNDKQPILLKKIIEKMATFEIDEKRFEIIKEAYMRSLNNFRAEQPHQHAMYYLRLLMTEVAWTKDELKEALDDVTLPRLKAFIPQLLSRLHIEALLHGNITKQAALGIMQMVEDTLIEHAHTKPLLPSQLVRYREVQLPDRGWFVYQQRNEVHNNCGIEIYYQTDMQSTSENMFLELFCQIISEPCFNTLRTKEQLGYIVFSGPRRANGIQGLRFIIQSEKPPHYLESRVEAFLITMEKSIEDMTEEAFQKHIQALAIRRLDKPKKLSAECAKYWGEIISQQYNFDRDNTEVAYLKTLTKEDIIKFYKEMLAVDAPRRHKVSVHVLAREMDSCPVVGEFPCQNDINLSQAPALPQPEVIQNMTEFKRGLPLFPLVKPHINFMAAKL

Insulin-degrading enzyme [11] = molecular target: T5, Insulin-degrading enzyme; assay: recombinant IDE activation, cell-free – biochemical, fluorescence polarization, counter-screen for IDE activator project, dose response (AID 588681)
HEK293 [12] = assay: optical interference in Abeta FP readout, dose response, artefact control for IDE activator project, biochemical, fluorescence polarization (AID 588442); type: functional, cell-based; details: Homo sapiens
HEK293 [13] = assay: membrane integrity loss in HEK cells – cell-based, fluorescence, cytotoxicity control for IDE activator project, dose response (AID 588440); type: functional; details: Homo sapiens;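 note: cytotoxicity by LDH release measuring loss of membrane integrity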
[14] = system: Streptococcus sp. 'group A'; assay: Streptococcus pyogenes SK(-)GAS viability under kanamycin – luminescence, BacTiterGlo, confirmation, counter-screen for streptokinase expression inhibitor project, dose response (AID 1900); type: functional, organism-based
[15] = molecular target: T2, Sentrin-specific protease 6; assay: SAR Analysis of small molecule inhibitors of Sentrin-specific protease 6 (SENP6) using a Luminescent assay. [Related pubchem assays (depositor defined):AID2582, AID2599]; type: functional
Nonstructural protein 1 = Nonstructural protein 1 (Influenza A virus, UniProt Q194T2); type: functional, Influenza A virus (A/California/07/2009(H1N1))
Nonstructural protein 1, sequence (Q194T2 whole entry): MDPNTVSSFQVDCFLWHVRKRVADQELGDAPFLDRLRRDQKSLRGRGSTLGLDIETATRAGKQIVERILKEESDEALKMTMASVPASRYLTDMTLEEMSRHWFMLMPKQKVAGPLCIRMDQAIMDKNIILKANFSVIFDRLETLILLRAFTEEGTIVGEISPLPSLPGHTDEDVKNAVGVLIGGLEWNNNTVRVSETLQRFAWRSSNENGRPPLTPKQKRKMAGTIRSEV

[16] = luciferase reporter signal suppression in cells – H4 neuroglioma cells, luminescence, dose response (AID 1990); type: functional, cell-based
HEK293 [17] = assay: EBV LMP1 TES2 canonical NF-kB signalling blockers – cell-based, HEK293, luciferase, cherry-pick, dose response (AID 588343); type: functional; details: Homo sapiens
Caspase-3 [18] = molecular target: T3, Caspase-3; assay: SAR Analysis of small molecule inhibitors of Sentrin-specific proteases (SENPs) using a Caspase-3 Selectivity assay. [Related pubchem assays (depositor defined):AID2540, AID2599, AID434973, AID489001]; type: functional
[19] = alpha-synuclein stem-loop luciferase translation blockers – H4 neuroglioma cells, luminescence, confirmation (AID 1988); type: functional, cell-based
[20] = Luminescence Cell-Based Dose Response HTS to Identify Inhibitors of 5'UTR Stem-Loop Driven Prion Protein mRNA Translation in H4 Neuroglioblastoma Cells. [Related pubchem assays: 1827 (Project Summary), 1813 (Primary HTS)]; type: functional
[21] = molecular target: T1, Sentrin-specific protease 8; assay: inhibition of human SENP8 cleavage activity – biochemical, luminescence, SAR follow-up (AID 504501); type: functional
[22] = molecular target: T4, Sentrin-specific protease 7; assay: inhibition of human SENP7 cleavage activity – biochemical, luminescence, SAR follow-up (AID 504497); type: functional
Streptococcus = assay: GAS UMAA2166 growth inhibition – luminescence, BacTiterGlo, counter-screen for streptokinase expression inhibitor project, dose response (AID 1915); type: functional, organism-based;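 note: potency for reduction of bacterial viability or growth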

## COc1ccc(-c2coc3cc4oc(=O)c5ccccc5c4cc23)cc1F
BJ [1]
  EC50: 0.66 µM (inconclusive)
BJ [2]
  EC50: 0.618 µM (inconclusive)
BJ [3]
  EC50: 109 µM (inconclusive)
BJ [4]
  EC50: 0.669 µM (inconclusive)
[5]
  EC50: 0.923 µM (active)

## Cn1cc(/C=C/C(=O)c2ccccc2)c2ccccc21
[6]
  IC50: 64.9 µM (active)
[7]
  IC50: 7.58 µM (active)
Caspase-3 [8]
  IC50: 17.7 µM (active)
[9]
  IC50: 3.24 µM (active)

## COCCN=C(S)N(C)C1(c2ccccc2Cl)CCCCC1=O (stereo not given)
Insulin-degrading enzyme [10]
  EC50: > 54.7 µM (inactive)
Insulin-degrading enzyme [11]
  EC50: > 54.7 µM (inactive)
HEK293 [12]
  EC50: > 55.9 µM (inactive)
HEK293 [13]
  IC50: > 89.2 µM (inactive)

## Cc1ccnc(Nc2nc(-c3ccc(F)cc3)cs2)c1
[6]
  IC50: 9.93 µM (active)
[7]
  IC50: 38.4 µM (active)
Caspase-3 [8]
  IC50: 44.4 µM (active)
[9]
  IC50: 6.9 µM (active)

## COc1c(C(=O)Nc2ccc3[nH]c(O)nc3c2)cc2ccccc2c1Br
Insulin-degrading enzyme [10]
  EC50: > 54.7 µM (inactive)
Insulin-degrading enzyme [11]
  EC50: > 54.7 µM (inactive)
HEK293 [12]
  EC50: > 54.7 µM (inactive)
HEK293 [13]
  IC50: 34.5 µM (inactive)

## O=[N+]([O-])c1ccc(O)c(/C=N/Nc2ncnc3c2cnn3-c2ccccc2)c1
[14]
  EC50: 1.02 µM (active)
[6]
  IC50: 2.44 µM (active)
[15]
  IC50: 1.54 µM (active)
Nonstructural protein 1
  IC50: > 100 µM (active)
[16]
  EC50: 11.4 µM (active)
HEK293 [17]
  AC50: 18.5 µM (active)
[7]
  IC50: 11.3 µM (active)
Caspase-3 [18]
  IC50: 4.42 µM (active)
Caspase-3 [8]
  IC50: > 100 µM (inactive)
[19]
  EC50: 5.1 µM (inconclusive)
[20]
  EC50: 23.6 µM (active)
[21]
  IC50: 1.49 µM (active)
[9]
  IC50: 1.94 µM (active)
[22]
  IC50: 1.4 µM (active)
Streptococcus
  EC50: 1.01 µM (active)

## CCOc1cc(C(=S)N2CCCC2)ccc1OCc1ccccc1F
[15]
  IC50: > 99 µM (inactive)
Caspase-3 [18]
  IC50: > 99 µM (inactive)
[21]
  IC50: > 99 µM (inactive)
[22]
  IC50: > 99 µM (inactive)
